# Source: patent US10308629B2, “1H-pyrrol-3-amines” (BAYER PHARMA AKTIENGESELLSCHAFT, priority 2015, dated 2019)
# Target: (recombinant) catalytic domain of human Bub1 (amino acids 704-1085) (Homo sapiens (Human), UniProt O43683)
# Test: Bub1 kinase assay (TR-FRET)
# Type: biochemical
# Conditions: ATP 10 μM, peptide substrate 1 μM, 60 min at 22° C., read-out: Inhibition of Bub1 kinase IC50
# Description: Bub1-inhibitory activities of compounds described in the present invention were quantified using a time-resolved fluorescence energy transfer (TR-FRET) kinase assay which measures phosphorylation of the synthetic peptide Biotin-Ahx-VLLPKKSFAEPG (SEQ ID No. 1) (C-terminus in amide form), purchased from e.g. Biosyntan (Berlin, Germany) by the (recombinant) catalytic domain of human Bub1 (amino acids 704-1085), expressed in Hi5 insect cells with an N-terminal His6-tag and purified by affinity-(Ni-NTA) and size exclusion chromatography.
# In a typical assay 11 different concentrations of each compound (0.1 nM, 0.33 nM, 1.1 nM, 3.8 nM, 13 nM, 44 nM, 0.15 μM, 0.51 μM, 1.7 μM, 5.9 μM and 20 μM) were tested in duplicate within the same microtiter plate. To this end, 100-fold concentrated compound solutions (in DMSO) were previously prepared by serial dilution (1:3.4) of 2 mM stocks in a clear low volume 384-well source microtiter plate (Greiner Bio-One, Frickenhausen, Germany), from which 50 nl of compounds were transferred into a black low volume test microtiter plate from the same supplier. Subsequently, 2 μL of Bub1 (the final concentration of Bub1 was adjusted depending on the activity of the enzyme lot in order to be within the linear dynamic range of the assay: typically ˜200 ng/mL were used) in aqueous assay buffer [50 mM Tris/HCl pH 7.5, 10 mM magnesium chloride (MgCl2), 200 mM potassium chloride (KCl), 1.0 mM dithiothreitol (DTT), 0.1 mM sodium ortho-vanadate, 1% (v/v) glycerol, 0.01% (w/v) bovine serum albumine (BSA), 0.005% (v/v) Trition X-100 (Sigma), 1× Complete EDTA-free protease inhibitor mixture (Roche)] were added to the compounds in the test plate and the mixture was incubated for 15 min at 22° C. to allow pre-equilibration of the putative enzyme-inhibitor complexes before the start of the kinase reaction, which was initiated by the addition of 3 μL 1.67-fold concentrated solution (in assay buffer) of adenosine-tri-phosphate (ATP, 10 μM final concentration) and peptide substrate (1 μM final concentration). The resulting mixture (5 μL final volume) was incubated at 22° C. during 60 min. and the reaction w as stopped by the addition of 5 μL of an aqueous EDTA-solution (50 mM EDTA, in 100 mM HEPES pH 7.5 and 0.2% (w/v) bovine serum albumin) which also contained the TR-FRET detection reagents (0.2 μM streptavidin-XL665 [Cisbio Bioassays, Codolet, France] and 1 nM anti-phosho-Serine antibody [Merck Millipore, cat. #35-002] and 0.4 nM LANCE EU-W1024 labeled anti-mouse IgG antibody [Perkin-Elmer, product no. AD0077, alternatively a Terbium-cryptate-labeled anti-mouse IgG antibody from Cisbio Bioassays can be used]). The stopped reaction mixture was further incubated 1 h at 22° C. in order to allow the formation of complexes between peptides and detection reagents. Subsequently, the amount of product was evaluated by measurement of the resonance energy transfer from the Eu-chelate-antibody complex recognizing the Phosphoserine residue to the streptavidin-XL665 bound to the biotin moiety of the peptide. To this end, the fluorescence emissions at 620 nm and 665 nm after excitation at 330-350 nm were measured in a TR-FRET plate reader, e.g. a Rubystar or Pherastar (both from BMG Labtechnologies, Offenburg, Germany) or a Viewlux (Perkin-Elmer) and the ratio of the emissions (665 nm/622 nm) was taken as indicator for the amount of phosphorylated substrate. The data were normalised using two sets of control wells for high−(=enzyme reaction without inhibitor=0%=Minimum inhibition) and low−(=all assay components without enzyme=100%=Maximum inhibition) Bub1 activity. IC50 values were calculated by fitting the normalized inhibition data to a 4-parameter logistic equation (Minimum, Maximum, IC50, Hill; Y=Max+(Min−Max)/(1+(X/IC50)Hill)).
# Sequence of (recombinant) catalytic domain of human Bub1 (amino acids 704-1085) (O43683 704-1085): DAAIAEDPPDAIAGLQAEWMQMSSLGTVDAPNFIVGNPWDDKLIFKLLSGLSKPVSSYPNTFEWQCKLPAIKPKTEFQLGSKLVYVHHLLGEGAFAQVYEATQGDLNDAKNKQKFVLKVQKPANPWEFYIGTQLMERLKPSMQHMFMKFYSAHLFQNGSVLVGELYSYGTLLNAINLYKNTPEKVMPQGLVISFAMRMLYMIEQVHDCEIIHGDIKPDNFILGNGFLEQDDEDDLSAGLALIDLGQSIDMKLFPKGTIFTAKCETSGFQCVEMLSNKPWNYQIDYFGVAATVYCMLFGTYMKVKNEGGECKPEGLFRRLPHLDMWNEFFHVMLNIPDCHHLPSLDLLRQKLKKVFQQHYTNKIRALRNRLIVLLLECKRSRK
compound,measurement,value
"O=C1c2c([nH]c(-c3ccncc3)c2Nc2ccccc2)C[C@H]2C[C@@H]12 (relative stereo) [Example 12, rel-(4aR,5aR)-3-(Phenylamino)-2-(pyridin-4-yl)-4a,5,5a,6-tetrahydrocyclopropa[f]indol-4(1H)-one]",IC50,7 nM
"CC1(C(=O)Nc2cc(-c3[nH]c4c(c3Nc3ccccc3)C(=O)[C@@H]3C[C@]3(C)C4=O)ccn2)CC1 (relative stereo) [Example 33, N-{4-[rel-(4aR,5aS)-3-Anilino-5a-methyl-4,6-dioxo-1,4,4a,5,5a,6-hexahydrocyclopropa[f]indol-2-yl]pyridin-2-yl}-1-methylcyclopropanecarboxamide]",IC50,110 nM
"1-Fluoro-N-4-[[(4aS,5aS) or (4aR,5aR)]-5a-methyl-4-oxo-3-(phenylamino)-1,4,4a,5,5a,6-hexahydrocyclopropa[f]indol-2-yl]pyridin-2-ylcyclopropanecarboxamide [Example 30]",IC50,17 nM
"N-{4-[[(4aR,5aR) or (4aS,5aS)]-3-Anilino-5a-methyl-4-oxo-1,4,4a,5,5a,6-hexahydrocyclopropa[f]indol-2-yl]pyridin-2-yl}-2,6-difluorobenzamide [Example 46]",IC50,4 nM
"CC1(C)[C@@H]2C[C@H]1C(=O)c1c2[nH]c(-c2ccnc(NC(=O)C3CC3)c2)c1Nc1ccccc1 (relative stereo) [Example 6, N-4-[rel-(5R,7S)-6,6-Dimethyl-4-oxo-3-(phenylamino)-4,5,6,7-tetrahydro-1H-5,7-methanoindol-2-yl]pyridin-2-ylcyclopropanecarboxamide]",IC50,63 nM
"CC1CCC(=O)c2c([nH]c(-c3ccnc(N)c3)c2Nc2ccccc2)C1 (racemic) [Example 24, (7RS)-2-(2-Aminopyridin-4-yl)-7-methyl-3-(phenylamino)-5,6,7,8-tetrahydrocyclohepta[b]pyrrol-4(1H)-one]",IC50,25 nM
"CC1(C)[C@@H]2C[C@H]1C(=O)c1c2[nH]c(-c2ccnc(NC(=O)NC3CC3)c2)c1Nc1ccccc1 (relative stereo) [Example 9, 1-cyclopropyl-3-4-[rel-(5R,7S)-6,6-Dimethyl-4-oxo-3-(phenylamino)-4,5,6,7-tetrahydro-1H-5,7-methanoindol-2-yl]pyridin-2-ylurea]",IC50,240 nM
"CC(=O)Nc1cc(-c2[nH]c3c(c2Nc2ccccc2)C(=O)CCC(C)C3)ccn1 (racemic) [Example 25, N-{4-[(7RS)-3-Anilino-7-methyl-4-oxo-1,4,5,6,7,8-hexahydrocyclohepta[b]pyrrol-2-yl]pyridin-2-yl}acetamide]",IC50,7 nM
"CC(=O)Nc1cc(-c2[nH]c3c(c2Nc2ccccc2)C(=O)[C@@H]2C[C@@H]2C3)ccn1 (relative stereo) [Example 15, rel-(4aR,5aR)-N-4-[4-oxo-3-(Phenylamino)-1,4,4a,5,5a,6-hexahydrocyclopropa[f]indol-2-yl]pyridin-2-ylacetamide]",IC50,6 nM
"1-Methyl-N-4-[[(4aR,5aR) or (4aS,5aS)]-5a-methyl-4-oxo-3-(phenylamino)-1,4,4a,5,5a,6-hexahydrocyclopropa[f]indol-2-yl]pyridin-2-yl-1H-pyrazole-5-carboxamide [Example 43]",IC50,22 nM
"CC(=O)Nc1cc(-c2[nH]c3c(c2Nc2ccccc2)C(=O)[C@@H]2C[C@H]3C2(C)C)ccn1 (relative stereo) [Example 5, N-4-[rel-(5R,7S)-6,6-Dimethyl-4-oxo-3-(phenylamino)-4,5,6,7-tetrahydro-1H-5,7-methanoindol-2-yl]pyridin-2-ylacetamide]",IC50,115 nM
"N-{4-[[(4aR,5aR) or (4aS,5aS)]-3-anilino-5a-methyl-4-oxo-1,4,4a,5,5a,6-hexahydrocyclopropa[f]indol-2-yl]pyridin-2-yl}-3-fluoro-4-methoxybenzamide [Example 50]",IC50,13 nM
"N-4-[(4aR,5aR or 4aS,5aS)-5a-Methyl-4-oxo-3-(phenylamino)-1,4,4a,5,5a,6-hexahydrocyclopropa[f]indol-2-yl]pyridin-2-ylacetamide [Example 19]",IC50,8 nM
"(5S,7R or 5R,7S)-2-(2-Aminopyridin-4-yl)-6,6-dimethyl-3-(phenylamino)-1,5,6,7-tetrahydro-4H-5,7-methanoindol-4-one [Example 4]",IC50,2930 nM
"(4aS,5aS or 4aR,5aR)-3-(Phenylamino)-2-(pyridin-4-yl)-4a,5,5a,6-tetrahydrocyclopropa[f]indol-4(1H)-one [Example 14]",IC50,4 nM
"N-4-[[(7R) or (7S)]-7-Methyl-4-oxo-3-(phenylamino)-1,4,5,6,7,8-hexahydrocyclohepta[b]pyrrol-2-yl]pyridin-2-ylacetamide [Example 39]",IC50,5 nM
"COC(=O)Nc1cc(-c2[nH]c3c(c2Nc2ccccc2)C(=O)[C@@H]2C[C@H]3C2(C)C)ccn1 (relative stereo) [Example 7, methyl 4-[rel-(5R,7S)-6,6-Dimethyl-4-oxo-3-(phenylamino)-4,5,6,7-tetrahydro-1H-5,7-methanoindol-2-yl]pyridin-2-ylcarbamate]",IC50,68 nM
"(1S,2S)-2-Fluoro-N-4-[[(4aS,5aS) or (4aR,5aR)]-5a-methyl-4-oxo-3-(phenylamino)-1,4,4a,5,5a,6-hexahydrocyclopropa[f]indol-2-yl]pyridin-2-ylcyclopropanecarboxamide [Example 36]",IC50,16 nM
"CC1(C)[C@@H]2C[C@H]1C(=O)c1c2[nH]c(-c2ccnc(N)c2)c1Nc1ccccc1 (relative stereo) [Example 2, rel-(5R,7S)-2-(2-Aminopyridin-4-yl)-6,6-dimethyl-3-(phenylamino)-1,5,6,7-tetrahydro-4H-5,7-methanoindol-4-one]",IC50,1160 nM
"CCNC(=O)Nc1cc(-c2[nH]c3c(c2Nc2ccccc2)C(=O)[C@@H]2C[C@H]3C2(C)C)ccn1 (relative stereo) [Example 8, 1-4-[rel-(5R,7S)-6,6-Dimethyl-4-oxo-3-(phenylamino)-4,5,6,7-tetrahydro-1H-5,7-methanoindol-2-yl]pyridin-2-yl-3-ethylurea]",IC50,375 nM
"2-Fluoro-2-methyl-N-4-[[(4aS,5aS) or (4aR,5aR)]-5a-methyl-4-oxo-3-(phenylamino)-1,4,4a,5,5a,6-hexahydrocyclopropa[f]indol-2-yl]pyridin-2-ylpropanamide [Example 40]",IC50,22 nM
"N-4-[[(4aR,5aR) or (4aS,5aS)]-5a-Methyl-4-oxo-3-(phenylamino)-1,4,4a,5,5a,6-hexahydrocyclopropa[f]indol-2-yl]pyridin-2-yl-1H-pyrazole-3-carboxamide [Example 45]",IC50,18 nM
"C[C@@]12Cc3[nH]c(-c4ccncc4)c(Nc4ccccc4)c3C(=O)[C@@H]1C2 (relative stereo) [Example 16, rel-(4aR,5aR)-5a-Methyl-3-(phenylamino)-2-(pyridin-4-yl)-4a,5,5a,6-tetrahydrocyclopropa[f]indol-4(1H)-one]",IC50,6 nM
"1-Methyl-N-4-[[(4aS,5aS) or (4aR,5aR)]-5a-methyl-4-oxo-3-(phenylamino)-1,4,4a,5,5a,6-hexahydrocyclopropa[f]indol-2-yl]pyridin-2-yl-1H-pyrazole-5-carboxamide [Example 42]",IC50,11 nM
"C[C@@]12C[C@@H]1C(=O)c1c([nH]c(-c3ccnc(NC(=O)C4CC4)c3)c1Nc1ccccc1)C2=O (relative stereo) [Example 32, N-4-[rel-(4aS,5aR)-5a-Methyl-4,6-dioxo-3-(phenylamino)-1,4,4a,5,5a,6-hexahydrocyclopropa[f]indol-2-yl]pyridin-2-ylcyclopropanecarboxamide]",IC50,30 nM
